# Assay results reported in patent US12227500B2, “Substituted pyrrolo[2,3-b]pyridines for suppressing toxic endoplasmic reticulum stress” (THE TRUSTEES OF COLUMBIA UNIVERSITY IN THE CITY OF NEW YORK, priority 2018, dated 2025).
# Where two headings read alike, the source gives them in different places.
# Assays:
# Experiment in all cases: Radiolabeled ATP kinase assay, panel of 60 kinases (Table S5)
# Format in all cases: biochemical
# [1] = molecular target: T1, panel of 60 human kinases (Homo sapiens, UniProt Q00537); details: CDK17/cyclin Y (PCTK2); 0.1 μM; 10 μM ATP; read-out: % Enzyme Activity (relative to DSMO controls)
# T1 construct: purchased Reaction Biology Corp
# Summary of the method: (§1)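 Compounds at two concentrations, 0.1 μM and 0.5 μM, were screened for inhibition of 60 kinases in cell-free assays read out by radiolabeled ATP.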
# [2] = molecular target: T2, panel of 60 human kinases (Homo sapiens, UniProt P50750); details: 0.1 μM, 10 μM ATP, read-out: % Enzyme Activity (relative to DSMO controls)
# T2 construct: purchased Reaction Biology Corp
# Summary of the method: as §1
# [3] = molecular target: T3, panel of 60 human kinases (Homo sapiens, UniProt P35916); details: FLT4/VEGFR3; 0.1 μM; 10 μM ATP; read-out: % Enzyme Activity (relative to DSMO controls)
# T3 construct: purchased Reaction Biology Corp
# Summary of the method: as §1
# [4] = molecular target: T4, panel of 60 human kinases (Homo sapiens, UniProt Q13627); details: DYRK/RK1A; 0.1 μM; 10 μM ATP; read-out: % Enzyme Activity (relative to DSMO controls)
# T4 construct: purchased Reaction Biology Corp
# Summary of the method: as §1
# [5] = molecular target: T5, panel of 60 human kinases (Homo sapiens, UniProt Q96GD4); details: Aurora B; 0.1 μM; 10 μM ATP; read-out: % Enzyme Activity (relative to DSMO controls)
# T5 construct: purchased Reaction Biology Corp
# Summary of the method: as §1
# [6] = molecular target: T6, panel of 60 human kinases (Homo sapiens, UniProt Q16539); details: P38a/MAPK14; 0.1 μM; 10 μM ATP; read-out: % Enzyme Activity (relative to DSMO controls)
# T6 construct: purchased Reaction Biology Corp
# Summary of the method: as §1
# [7] = molecular target: T7, panel of 60 human kinases (Homo sapiens, UniProt Q15759); details: P38b/MAPK11; 0.1 μM; 10 μM ATP; read-out: % Enzyme Activity (relative to DSMO controls)
# T7 construct: purchased Reaction Biology Corp
# Summary of the method: as §1
# [8] = molecular target: T8, panel of 60 human kinases (Homo sapiens, UniProt O94921); details: CDK14/cyclin Y (PFTK1); 0.1 μM; 10 μM ATP; read-out: % Enzyme Activity (relative to DSMO controls)
# T8 construct: purchased Reaction Biology Corp
# Summary of the method: as §1
# [9] = molecular target: T9, panel of 60 human kinases (Homo sapiens, UniProt Q9H2K8); details: TAOK3/JIK; 0.1 μM; 10 μM ATP; read-out: % Enzyme Activity (relative to DSMO controls)
# T9 construct: purchased Reaction Biology Corp
# T9 sequence (Q9H2K8 1-898): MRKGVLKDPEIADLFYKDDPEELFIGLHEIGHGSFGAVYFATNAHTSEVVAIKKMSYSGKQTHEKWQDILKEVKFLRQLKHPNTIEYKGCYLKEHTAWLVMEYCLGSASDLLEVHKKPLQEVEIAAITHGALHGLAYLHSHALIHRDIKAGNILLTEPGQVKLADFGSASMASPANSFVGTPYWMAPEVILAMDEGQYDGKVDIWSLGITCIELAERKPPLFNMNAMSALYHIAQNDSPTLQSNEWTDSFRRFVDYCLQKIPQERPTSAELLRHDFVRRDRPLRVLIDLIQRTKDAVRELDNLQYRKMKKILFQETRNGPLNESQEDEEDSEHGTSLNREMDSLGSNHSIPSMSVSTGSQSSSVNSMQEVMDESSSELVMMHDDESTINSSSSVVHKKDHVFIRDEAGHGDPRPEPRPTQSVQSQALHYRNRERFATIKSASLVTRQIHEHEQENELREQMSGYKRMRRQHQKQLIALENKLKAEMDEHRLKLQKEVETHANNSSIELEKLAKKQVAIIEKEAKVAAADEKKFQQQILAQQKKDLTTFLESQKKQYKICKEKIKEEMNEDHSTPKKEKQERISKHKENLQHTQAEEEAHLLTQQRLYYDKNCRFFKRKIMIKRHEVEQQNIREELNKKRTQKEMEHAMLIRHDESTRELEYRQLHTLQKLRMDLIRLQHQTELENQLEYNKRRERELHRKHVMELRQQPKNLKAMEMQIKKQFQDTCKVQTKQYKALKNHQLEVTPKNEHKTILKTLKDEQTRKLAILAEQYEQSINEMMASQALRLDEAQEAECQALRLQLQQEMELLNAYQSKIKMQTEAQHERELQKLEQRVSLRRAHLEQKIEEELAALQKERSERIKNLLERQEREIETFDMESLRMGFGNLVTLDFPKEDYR
# Summary of the method: as §1
# [10] = molecular target: T10, panel of 60 human kinases (Homo sapiens, UniProt Q9Y4K4); details: KHS/MAPK4K5; 0.1 μM; 10 μM ATP; read-out: % Enzyme Activity (relative to DSMO controls)
# T10 construct: purchased Reaction Biology Corp
# Summary of the method: as §1
# [11] = molecular target: T11, panel of 60 human kinases (Homo sapiens, UniProt Q8N4C8); details: MINK/MINK1; 0.1 μM; 10 μM ATP; read-out: % Enzyme Activity (relative to DSMO controls)
# T11 construct: purchased Reaction Biology Corp
# Summary of the method: as §1
# [12] = molecular target: T12, panel of 60 human kinases (Homo sapiens, UniProt Q00526); details: CDK3/cyclin E; 0.1 μM; 10 μM ATP; read-out: % Enzyme Activity (relative to DSMO controls)
# T12 construct: purchased Reaction Biology Corp
# Summary of the method: as §1
# T2 sequence (P50750 whole entry): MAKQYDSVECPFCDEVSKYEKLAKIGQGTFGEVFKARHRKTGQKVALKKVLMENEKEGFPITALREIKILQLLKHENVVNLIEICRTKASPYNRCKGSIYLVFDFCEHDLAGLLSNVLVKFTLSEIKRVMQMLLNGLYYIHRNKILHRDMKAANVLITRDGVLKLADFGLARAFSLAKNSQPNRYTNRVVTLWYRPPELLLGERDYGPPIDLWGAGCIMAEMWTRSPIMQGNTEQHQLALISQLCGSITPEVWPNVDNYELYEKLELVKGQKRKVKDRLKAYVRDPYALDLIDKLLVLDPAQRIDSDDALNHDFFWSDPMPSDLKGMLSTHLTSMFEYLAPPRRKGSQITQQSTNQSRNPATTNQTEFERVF
# T11 sequence (Q8N4C8 whole entry): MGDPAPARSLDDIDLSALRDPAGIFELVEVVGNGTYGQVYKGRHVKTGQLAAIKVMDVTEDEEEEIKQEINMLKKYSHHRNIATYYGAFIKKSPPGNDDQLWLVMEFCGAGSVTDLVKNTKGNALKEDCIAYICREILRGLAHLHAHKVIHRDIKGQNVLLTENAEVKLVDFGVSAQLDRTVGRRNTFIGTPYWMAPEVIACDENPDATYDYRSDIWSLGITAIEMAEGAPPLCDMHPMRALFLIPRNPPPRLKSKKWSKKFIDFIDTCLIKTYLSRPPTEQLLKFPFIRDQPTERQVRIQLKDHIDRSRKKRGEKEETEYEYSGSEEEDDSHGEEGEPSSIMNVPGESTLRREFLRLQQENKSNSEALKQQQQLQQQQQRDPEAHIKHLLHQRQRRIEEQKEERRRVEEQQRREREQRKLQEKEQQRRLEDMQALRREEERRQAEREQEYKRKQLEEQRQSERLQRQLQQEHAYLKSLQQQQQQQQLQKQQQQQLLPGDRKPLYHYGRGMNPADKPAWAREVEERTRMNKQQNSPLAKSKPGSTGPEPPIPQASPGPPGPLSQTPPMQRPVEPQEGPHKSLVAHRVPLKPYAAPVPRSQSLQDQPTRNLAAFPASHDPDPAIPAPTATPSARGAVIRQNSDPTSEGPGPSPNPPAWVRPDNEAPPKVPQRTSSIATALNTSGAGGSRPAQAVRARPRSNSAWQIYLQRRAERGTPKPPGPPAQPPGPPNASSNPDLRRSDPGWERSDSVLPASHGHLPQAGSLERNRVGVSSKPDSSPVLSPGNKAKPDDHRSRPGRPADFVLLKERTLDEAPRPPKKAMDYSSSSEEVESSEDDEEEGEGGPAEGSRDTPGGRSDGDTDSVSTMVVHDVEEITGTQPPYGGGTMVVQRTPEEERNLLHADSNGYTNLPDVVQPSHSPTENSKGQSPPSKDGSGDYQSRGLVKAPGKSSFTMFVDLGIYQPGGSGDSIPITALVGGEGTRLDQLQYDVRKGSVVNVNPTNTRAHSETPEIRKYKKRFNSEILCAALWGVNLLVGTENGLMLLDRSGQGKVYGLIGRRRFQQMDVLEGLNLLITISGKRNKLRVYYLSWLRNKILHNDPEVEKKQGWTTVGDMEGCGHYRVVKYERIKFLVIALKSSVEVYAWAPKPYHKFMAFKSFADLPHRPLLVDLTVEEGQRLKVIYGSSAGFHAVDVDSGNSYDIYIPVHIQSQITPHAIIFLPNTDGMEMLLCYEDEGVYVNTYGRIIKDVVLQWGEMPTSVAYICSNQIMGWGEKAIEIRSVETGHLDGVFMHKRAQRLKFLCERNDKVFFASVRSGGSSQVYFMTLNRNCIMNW
# T1 sequence (Q00537 whole entry): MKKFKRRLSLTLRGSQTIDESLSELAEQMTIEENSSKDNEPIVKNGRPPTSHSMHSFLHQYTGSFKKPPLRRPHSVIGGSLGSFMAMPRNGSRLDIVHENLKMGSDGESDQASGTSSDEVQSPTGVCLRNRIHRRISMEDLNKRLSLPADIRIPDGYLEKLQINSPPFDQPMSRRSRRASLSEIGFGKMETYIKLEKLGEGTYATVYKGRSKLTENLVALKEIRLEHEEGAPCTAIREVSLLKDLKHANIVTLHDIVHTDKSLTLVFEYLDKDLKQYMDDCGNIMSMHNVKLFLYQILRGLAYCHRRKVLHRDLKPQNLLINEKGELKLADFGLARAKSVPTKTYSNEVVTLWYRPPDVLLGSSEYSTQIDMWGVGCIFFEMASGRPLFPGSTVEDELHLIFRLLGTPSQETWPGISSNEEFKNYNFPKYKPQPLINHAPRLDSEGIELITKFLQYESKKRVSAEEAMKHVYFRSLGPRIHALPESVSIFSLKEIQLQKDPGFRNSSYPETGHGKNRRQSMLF
# T10 sequence (Q9Y4K4 whole entry): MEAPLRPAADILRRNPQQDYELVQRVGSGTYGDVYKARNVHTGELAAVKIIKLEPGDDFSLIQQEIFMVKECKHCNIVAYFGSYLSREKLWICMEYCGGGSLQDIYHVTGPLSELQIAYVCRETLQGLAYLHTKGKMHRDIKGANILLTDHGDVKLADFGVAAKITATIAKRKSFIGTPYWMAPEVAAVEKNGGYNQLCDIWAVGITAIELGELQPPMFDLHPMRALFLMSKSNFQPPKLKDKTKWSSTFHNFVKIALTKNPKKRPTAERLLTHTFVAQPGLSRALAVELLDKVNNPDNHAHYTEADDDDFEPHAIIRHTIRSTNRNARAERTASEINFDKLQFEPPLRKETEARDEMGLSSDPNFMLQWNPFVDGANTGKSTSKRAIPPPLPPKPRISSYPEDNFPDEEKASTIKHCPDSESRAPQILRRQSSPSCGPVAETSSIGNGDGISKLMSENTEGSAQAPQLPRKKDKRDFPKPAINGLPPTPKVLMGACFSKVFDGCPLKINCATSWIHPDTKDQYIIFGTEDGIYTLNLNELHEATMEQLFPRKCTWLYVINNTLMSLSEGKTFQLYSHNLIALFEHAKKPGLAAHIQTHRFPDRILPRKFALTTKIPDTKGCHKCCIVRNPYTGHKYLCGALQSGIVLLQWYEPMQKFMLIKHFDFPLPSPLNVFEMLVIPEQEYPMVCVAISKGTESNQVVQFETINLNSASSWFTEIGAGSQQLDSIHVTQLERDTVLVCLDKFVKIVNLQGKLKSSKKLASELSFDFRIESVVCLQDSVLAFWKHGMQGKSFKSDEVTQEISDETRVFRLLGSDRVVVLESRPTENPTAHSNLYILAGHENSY
# T12 sequence (Q00526 whole entry): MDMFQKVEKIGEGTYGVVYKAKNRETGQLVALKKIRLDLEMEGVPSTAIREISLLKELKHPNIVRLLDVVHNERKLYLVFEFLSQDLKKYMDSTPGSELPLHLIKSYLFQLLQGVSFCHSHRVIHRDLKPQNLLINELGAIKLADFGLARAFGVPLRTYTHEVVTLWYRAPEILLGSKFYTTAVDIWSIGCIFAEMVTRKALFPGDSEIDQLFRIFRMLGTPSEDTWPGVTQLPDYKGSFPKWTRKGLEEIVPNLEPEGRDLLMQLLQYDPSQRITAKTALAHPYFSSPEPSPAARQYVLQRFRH
# T3 sequence (P35916 25-1363): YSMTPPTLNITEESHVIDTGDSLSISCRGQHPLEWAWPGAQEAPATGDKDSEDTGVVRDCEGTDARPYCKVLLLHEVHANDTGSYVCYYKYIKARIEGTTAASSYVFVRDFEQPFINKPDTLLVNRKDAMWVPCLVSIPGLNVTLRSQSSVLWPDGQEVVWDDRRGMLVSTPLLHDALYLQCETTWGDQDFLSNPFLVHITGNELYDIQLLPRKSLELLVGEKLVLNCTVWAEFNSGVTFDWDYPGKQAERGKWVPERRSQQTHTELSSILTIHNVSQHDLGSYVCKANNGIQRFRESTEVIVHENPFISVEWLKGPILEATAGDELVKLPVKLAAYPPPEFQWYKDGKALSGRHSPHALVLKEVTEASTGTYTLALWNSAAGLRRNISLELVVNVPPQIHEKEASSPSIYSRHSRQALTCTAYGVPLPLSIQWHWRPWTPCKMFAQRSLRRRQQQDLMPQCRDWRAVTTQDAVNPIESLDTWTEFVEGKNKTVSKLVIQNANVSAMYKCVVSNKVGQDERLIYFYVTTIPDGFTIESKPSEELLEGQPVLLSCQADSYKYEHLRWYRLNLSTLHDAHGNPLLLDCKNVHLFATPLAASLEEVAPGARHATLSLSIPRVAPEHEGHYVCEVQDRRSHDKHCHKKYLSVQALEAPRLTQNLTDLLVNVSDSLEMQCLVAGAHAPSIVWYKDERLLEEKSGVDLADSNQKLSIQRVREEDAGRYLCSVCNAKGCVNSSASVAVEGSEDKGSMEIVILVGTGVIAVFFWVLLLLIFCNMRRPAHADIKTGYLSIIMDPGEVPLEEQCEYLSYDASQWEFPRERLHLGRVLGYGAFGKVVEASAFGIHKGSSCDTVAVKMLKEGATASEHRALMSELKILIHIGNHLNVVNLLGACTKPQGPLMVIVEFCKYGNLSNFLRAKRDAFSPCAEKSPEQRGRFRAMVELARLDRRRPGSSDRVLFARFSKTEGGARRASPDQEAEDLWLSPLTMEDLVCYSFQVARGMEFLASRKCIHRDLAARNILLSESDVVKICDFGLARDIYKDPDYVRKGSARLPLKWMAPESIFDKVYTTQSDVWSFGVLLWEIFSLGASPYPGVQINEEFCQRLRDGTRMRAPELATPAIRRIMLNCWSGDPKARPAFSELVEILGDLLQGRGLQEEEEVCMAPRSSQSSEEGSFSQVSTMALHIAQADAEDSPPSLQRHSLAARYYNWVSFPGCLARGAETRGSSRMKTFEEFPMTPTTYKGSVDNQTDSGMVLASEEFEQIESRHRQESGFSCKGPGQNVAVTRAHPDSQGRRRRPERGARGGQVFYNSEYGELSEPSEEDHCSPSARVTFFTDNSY
# T5 sequence (Q96GD4 whole entry): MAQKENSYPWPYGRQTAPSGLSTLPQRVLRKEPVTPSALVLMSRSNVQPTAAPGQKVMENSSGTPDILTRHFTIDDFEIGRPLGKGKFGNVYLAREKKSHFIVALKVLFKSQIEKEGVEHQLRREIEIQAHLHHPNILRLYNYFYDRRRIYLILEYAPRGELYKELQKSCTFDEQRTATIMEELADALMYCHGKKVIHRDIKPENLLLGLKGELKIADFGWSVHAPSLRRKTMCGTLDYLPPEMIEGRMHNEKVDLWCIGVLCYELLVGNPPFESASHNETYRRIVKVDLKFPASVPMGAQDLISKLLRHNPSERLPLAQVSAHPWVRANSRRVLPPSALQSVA
smiles,measurement,setting,value
"CN1CCN(Cc2ccc(-c3cnc4[nH]cc(-c5ccccc5Cl)c4c3)cc2)CC1 [Compound 7as, 3-(2-Chlorophenyl)-5-(4-((4-methylpiperazin-1-yl)methyl)phenyl)-1H-pyrrolo[2,3-b]pyridine]",remaining activity at 0.1 µM,[1],44.1%
same,remaining activity at 0.1 µM,[2]; CDK9/cyclin K,96.6%
same,remaining activity at 0.1 µM,[2]; CDK9/cyclin T1,82.3%
same,remaining activity at 0.1 µM,[2]; CDK9/cyclin T2,74.2%
same,remaining activity at 0.1 µM,[3],23.2%
same,remaining activity at 0.1 µM,[4],42%
same,remaining activity at 0.1 µM,[5],82.5%
same,remaining activity at 0.1 µM,[6],113%
same,remaining activity at 0.1 µM,[7],99.5%
same,remaining activity at 0.1 µM,[8],85%
same,remaining activity at 0.1 µM,[9],69.8%
same,remaining activity at 0.1 µM,[10],0.89%
same,remaining activity at 0.1 µM,[11],0.19%
same,remaining activity at 0.1 µM,[12],85.5%
